Test results published in PMC12524486, “Characterization of α-L-Rhamnosidase and β-D-Glucosidase Subunits of Naringinase Immobilized on a Magnetic Polysaccharide Carrier” (International Journal of Molecular Sciences, 2025).

Tests used:
[1] = system: T1, β-D-glucosidase subunit of free naringinase from A. niger KMS; experiment: p-nitrophenol release at […] nm, initial rates, Lineweaver-Burk; format: biochemical, Aspergillus niger; details: free enzyme (crude naringinase preparation), 0.1 M buffer pH 4.0, 50 °C, substrate 0.4-1.5 mM
T1 construct: gene beta-D-glucosidase; native secreted enzyme in a crude naringinase preparation (culture fluid ultrafiltered, acetone precipitated)

[2] = system: T2, α-L-rhamnosidase subunit of free naringinase from A. niger KMS; experiment: as above; format: biochemical, Aspergillus niger; details: free enzyme (crude naringinase preparation), 0.1 M buffer pH 4.0, 50 °C, substrate 0.4-1.5 mM
T2 construct: gene alpha-L-rhamnosidase; native secreted enzyme in a crude naringinase preparation (culture fluid ultrafiltered, acetone precipitated)

Km [1] [µM]	Km [2] [µM]	Compound
2720 ± 78		O=[N+]([O-])c1ccc(O[C@@H]2O[C@H](CO)[C@@H](O)[C@H](O)[C@H]2O)cc1 [pNPG, 4-nitrophenyl β-D-glucopyranoside]
	2080 ± 35.5	C[C@@H]1O[C@@H](Oc2ccc([N+](=O)[O-])cc2)[C@H](O)[C@H](O)[C@H]1O [pNPR, 4-nitrophenyl α-L-rhamnopyranoside]
